Data from patent publication US20240358015A1, “HERBICIDAL COMPOSITIONS” (Agrematch Ltd., priority 2021, published 2024).

Legend:
Format in all cases: in vivo
Amaranthus palmeri [1] = assay: Growth-chamber post-emergence herbicidal assay (Example 2)
Experimental: (§1) Herbicidal activity was determined by post-emergence application on 8-day old plants (weeds) of the Amaranthus palmeri and Setaria viridis species that were grown at 16 hours/8 hours day/night cycles at 30° C./25° C., respectively. Leaf stage was typically 4-6 for A. palmeri and 3-4 for S. viridis.
(§2) In each treatment, 2-3 pots, each containing about 5 plants each (for Setaria viridis), and one 9-pack, containing about 9 plants (for Amaranthus palmeri), were sprayed using a VL-SET Paasche Airbrush with 0.3-1.5 ml solution containing 0.125-2 mg/ml of a tested compound, which is equivalent to about 125-2000 g/ha.
(§3) Damage assessment: Herbicidal activity was assessed and scored 3-4 days after application by visual inspection of the plants in comparison to plants treated with the formulation alone (with no active ingredient) as control. Activity score is in the range of 0 to 100, where 0 represents no herbicidal activity like control plants and 100 represents the maximal herbicidal activity (i.e., total death of the plant).
Formulation design: Compounds were tested on A. Palmeri in various formulations, and in varying concentrations for each of the tested formulations, in order to determine optimal conditions for its application and performance. Activity scores were determined as described hereinabove. Solubility scores were determined by visual inspection on a scale of 1-10, with 10 representing complete solubilization and 1 represents nullified solubilization.
Each of the obtained solution was then mixed with different adjuvants and applied at a rate equivalent to 500 g/ha for A. palmeri and 1000 g/ha for S. viridis. Herbicidal activity scores 3-4 days after application are presented Table 3 below.

Setaria viridis [2] = assay: as above
Experimental: as §1, §2, §3
Herbicidal activity scores 3-4 days after application are presented Table 3 below.

Amaranthus palmeri [3] = assay: Growth-chamber post-emergence assay (Example 8)
Experimental: as §1, with “activity of Compounds 1B, 3, 4, 5 and 6” for “activity”
(§4) In each treatment, between 1 to 4 pots (8×12 cm), containing about 6 Amaranthus palmeri or Setaria viridis plants, were sprayed using a VL-SET Paasche Airbrush with a 1 ml-solution containing 0.250-2 mg/ml of the tested compound, which is equivalent to about 250-2000 g/ha.
as §3

Setaria viridis [4] = assay: Growth-chamber post-emergence assay (Example 8)
Experimental: as §1, with “activity of Compounds 1B, 3, 4, 5 and 6” for “activity”
as §4, §3

[5] = 250 g/ha, 2% MIPA, 2% DMSO, 0.25% Genapol, 2% HASTEN
[6] = 500 g/ha, 2% MIPA, 2% DMSO, 0.25% Genapol, 2% HASTEN
[7] = 1000 g/ha, 2% MIPA, 2% DMSO, 0.25% Genapol, 2% HASTEN, 3-4 days after application, scale 0-100
[8] = 1000 g/ha, 8.6% Acetophenone, 1% TWEEN 80, 1.4% NMP, 0.5% ECO, 0.5% Ca-LAS, 0.05% Break-Thru
[9] = 2000 g/ha, 8.6% Acetophenone, 2% TWEEN 20, 1.4% NMP, 0.5% ECO, 0.5% Ca-LAS, 0.05% Break-Thru
[10] = 250 g/ha, 10% Acetone, 1.85% MIPA, 5% DMSO, 0.23% Genapol, 1.85% HASTEN
[11] = 500 g/ha, 10% Acetone, 1.7% MIPA, 5% DMSO, 0.85% TWEEN20, 1.7% HASTEN
[12] = 1000 g/ha, 2% MIPA, 2% DMSO, 1% TWEEN20, 2% HASTEN
[13] = 2000 g/ha, 2% MIPA, 2% DMSO, 1% TWEEN20, 2% HASTEN
[14] = 250 g/ha, 14% Acetone, 2% MIPA, 5% DMSO, 1% TWEEN20, 2% HASTEN
[15] = 330 g/ha, 5% Acetone, 2% MIPA, 2.5% DMSO, 0.25% Genapol, 2% HASTEN
[16] = 330 g/ha, 10% Acetone, 0.8% MIPA, 5% DMSO, 0.25% Genapol, 2% HASTEN
[17] = 330 g/ha, 10% Acetone, 2% MIPA, 5% DMSO, 0.25% Genapol, 2% HASTEN
[18] = 500 g/ha, 18.5% Acetone, 2% MIPA, 5% DMSO, 1% TWEEN20, 2% HASTEN
[19] = 2000 g/ha, 2% MIPA, 1% TWEEN20, 2% HASTEN

SMILES: O=C(O)c1cc(O)c2c(c1)C(=O)c1cccc(O[C@@H]3O[C@H](CO)[C@@H](O)[C@H](O)[C@H]3O)c1C2=O [Compound 1B, Rhein 8-glucoside]
- Activity Score (Amaranthus palmeri [1]; 500 g/ha, 2% TWEEN 20, 0.05M Tris buffer pH 8.3, 0.05% Break-Thru): 30
- Activity Score (Amaranthus palmeri [1]; 750* g/ha (rate adjusted to reflect that of the Rhein actual active ingredient), 2% TWEEN 20, 5.7 mM MIPA, 0.05% Break-Thru): 70
- Activity Score (Setaria viridis [2]; 750* g/ha (rate adjusted to reflect that of the Rhein actual active ingredient), 1% Eta-70, 5.7 mM MIPA, 0.05% Break-Thru): 50
- Herbicidal activity score (Amaranthus palmeri [3]; [5]): 85
- Herbicidal activity score (Amaranthus palmeri [3]; [6]): 100
- Herbicidal activity score (Amaranthus palmeri [3]; [7]): 100
- Herbicidal activity score (Setaria viridis [4]; [5]): 70
- Herbicidal activity score (Setaria viridis [4]; [6]): 95
- Herbicidal activity score (Setaria viridis [4]; [7]): 90

SMILES: O=C(O)c1ccc2c(c1)C(=O)c1ccccc1C2=O [Compound 2]
- Activity Score (Amaranthus palmeri [1]; 500 g/ha, 4.3% Acetophenone, 1% TWEEN 80, 0.7% NMP, 0.25% ECO, 0.25% Ca-LAS, 0.05% Break-Thru): 100
- Activity Score (Amaranthus palmeri [1]; [8]): 95
- Activity Score (Amaranthus palmeri [1]; 2000 g/ha, 2% DMSO, 1% TWEEN 80, 0.05M Tris buffer pH 8, 0.05% Break-Thru): 100
- Activity Score (Setaria viridis [2]; 1500 g/ha, 2% DMSO, 1% TWEEN 80, 0.05M Tris buffer pH 8, 0.05% Break-Thru): 40

SMILES: COC(=O)c1ccc2c(c1O)C(=O)c1ccccc1C2=O [Compound 3]
- Activity Score (Amaranthus palmeri [1]; [9]): 80
- Activity Score (Setaria viridis [2]; [9]): 10
- Herbicidal activity score (Amaranthus palmeri [3]; [10]): 91
- Herbicidal activity score (Amaranthus palmeri [3]; [11]): 99
- Herbicidal activity score (Amaranthus palmeri [3]; [12]): 95
- Herbicidal activity score (Amaranthus palmeri [3]; [13]): 95
- Herbicidal activity score (Setaria viridis [4]; [10]): 63
- Herbicidal activity score (Setaria viridis [4]; [11]): 88
- Herbicidal activity score (Setaria viridis [4]; [12]): 95
- Herbicidal activity score (Setaria viridis [4]; [13]): 100

SMILES: O=C1c2ccccc2C(=O)c2cc(CO)ccc21 [Compound 4]
- Activity Score (Amaranthus palmeri [1]; [8]): 95
- Activity Score (Amaranthus palmeri [1]; 1500 g/ha, 8.6% Acetophenone, 4% TWEEN 20, 1.4% NMP, 0.5% ECO, 0.5% Ca-LAS, 0.05% Break-Thru): 95
- Activity Score (Setaria viridis [2]; 1500 g/ha, 6% DMSO, 0.05% Break-Thru): 40
- Herbicidal activity score (Amaranthus palmeri [3]; [10]): 85
- Herbicidal activity score (Amaranthus palmeri [3]; [14]): 90
- Herbicidal activity score (Amaranthus palmeri [3]; [15]): 88
- Herbicidal activity score (Amaranthus palmeri [3]; [16]): 93
- Herbicidal activity score (Amaranthus palmeri [3]; [17]): 80
- Herbicidal activity score (Amaranthus palmeri [3]; [18]): 95
- Herbicidal activity score (Setaria viridis [4]; [10]): 45
- Herbicidal activity score (Setaria viridis [4]; [14]): 90
- Herbicidal activity score (Setaria viridis [4]; [15]): 80
- Herbicidal activity score (Setaria viridis [4]; [16]): 75
- Herbicidal activity score (Setaria viridis [4]; [17]): 88
- Herbicidal activity score (Setaria viridis [4]; [18]): 50

SMILES: Cc1cc(O)c2c(c1)C(=O)c1cc(O)cc(O)c1C2=O [Compound 5]
- Activity Score (Amaranthus palmeri [1]; [9]): 70
- Herbicidal activity score (Amaranthus palmeri [3]; [12]): 95
- Herbicidal activity score (Amaranthus palmeri [3]; [19]): 100
- Herbicidal activity score (Setaria viridis [4]; [12]): 75
- Herbicidal activity score (Setaria viridis [4]; [19]): 90

SMILES: O=C1c2ccccc2C(=O)c2c(O)cccc21 [Compound 6]
- Activity Score (Amaranthus palmeri [1]; 1500 g/ha, 8.6% Acetophenone, 1% TWEEN 80, 1.4% NMP, 0.5% ECO, 0.5% Ca-LAS, 0.05% Break-Thru): 75
- Activity Score (Setaria viridis [2]; [8]): 80
- Herbicidal activity score (Amaranthus palmeri [3]; [14]): 10
- Herbicidal activity score (Amaranthus palmeri [3]; [18]): 70
- Herbicidal activity score (Amaranthus palmeri [3]; [12]): 70
- Herbicidal activity score (Amaranthus palmeri [3]; [13]): 90
- Herbicidal activity score (Setaria viridis [4]; [14]): 90
- Herbicidal activity score (Setaria viridis [4]; [18]): 40
- Herbicidal activity score (Setaria viridis [4]; [12]): 90
- Herbicidal activity score (Setaria viridis [4]; [13]): 95

SMILES: Nc1ccc(O)c2c1C(=O)c1ccccc1C2=O [Compound 7]
- Activity Score (Amaranthus palmeri [1]; [9]): 40
